Test results as given in ChEMBL document CHEMBL1201862, “PubChem BioAssay data set” (2004).
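The compound was tested at five concentrations on cells cultured in 96-well plates, with a 48-hour exposure period. The concentration for 50% growth inhibition is given as GI50.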 Active and inactive are the calls of the source. No stated cut-off is given here; in the data, active = GI50 up to about 1.1 µM and inactive = higher.

System: BT-549
Test: DTP human tumour cell line panel, 48 h

Compound | GI50
NCc1nnn(Cc2ccccc2)c1N | > 100 µM (inactive)
Cc1c(C)c2c(c(N)c1C#N)C(=O)N(Cc1ccc(S(N)(=O)=O)cc1)C2=O | 19.4 µM (inactive)
COc1c(O)cc2ccnc3c2c1N(C)C=C3 | > 100 µM (inactive)
COc1cc(/C=N\O)nc(-c2ccccn2)c1 | 1.5 µM (inactive)
CCOC(=O)C1C[C@H]2CO[C@H](c3ccccc3)N2C1=O (stereo partly specified) | > 100 µM (inactive)
CC(C)OP(=O)(OC(C)C)/C(C#N)=C/c1ccco1 | > 100 µM (inactive)
c1ccc2c[n+](CCCC[n+]3ccc4ccccc4c3)ccc2c1 | > 100 µM (inactive)
COC(=O)c1ccccc1C1CN=NC12Cc1c(C)cc(C)cc1C2=O (stereo unspecified) | > 100 µM (inactive)
CCOC(=O)/C=C\C(C#N)(C#N)/N=C/c1ccsc1 | 5.42 µM (inactive)
O=C1/C(=C/c2ccc([N+](=O)[O-])cc2)CCCc2ccccc21 | > 100 µM (inactive)
O=C(O)CN(CC(=O)O)Cc1ccn(-c2cccc(-n3ccc(CN(CC(=O)O)CC(=O)O)n3)n2)n1 | > 100 µM (inactive)
O=C(NNCc1ccco1)c1cc2ccccc2[nH]1 | > 52.2 µM (inactive)
COc1cccc(-c2nc(O)c3ccccc3n2)c1 | 24.8 µM (inactive)
CC[C@H]1C=CCC[C@@]2(C[C@@H]3CC[C@@H]4[C@H](C(=O)OCCCCCCCCCCCCCCCC(=O)O)[C@]5(CCC[C@@H](C)O5)NC(=[N+]34)N2)O1 [CRAMBESCIDIN 657] | 0.314 µM (active)
CC(=O)CC1(CBr)Nc2ccc([N+](=O)[O-])cc2NC1=O (stereo unspecified) | 58.1 µM (inactive)
COC(=O)c1c(O)ccc2c1c1c(n2Cc2cc(OC)cc(OC)c2)C(=O)c2ccccc2C1=O | 6.71 µM (inactive)
CSc1nc(-c2cc3c(c(SC)n2)CCCCC3)cc2c1CCCCC2 | > 100 µM (inactive)
N#CCC(=O)Nn1c(CC#N)nnc1Cc1ccccc1 | > 100 µM (inactive)
Nc1nc(N)c2c(n1)NC(c1ccccc1)CC(/C=C/c1ccc(Cl)cc1)=N2 (stereo unspecified) | 17.5 µM (inactive)
CCN1C/C(=C\c2ccc(Cl)cc2)c2[nH]c(=O)c(C#N)c(-c3ccc(Cl)cc3)c2C1 | > 100 µM (inactive)
O=C1c2[nH]c3ccccc3c2CCN2CCCCC12 (stereo unspecified) | 27.6 µM (inactive)

Compound | GI50
COc1ccc2c(CCNS(=O)(=O)c3ccccc3)c(C(C)=O)[nH]c2c1 | 33.8 µM (inactive)
N#CI1OC(C(F)(F)F)(C(F)(F)F)c2ccccc21 | 19.6 µM (inactive)
O=C1CC(C(=O)N2CCCCC2)n2c(=O)n(-c3ccccc3)c(=O)n2C1 (stereo unspecified) | > 100 µM (inactive)
Nc1ccc2nc3ccc(N)cc3[n+](-c3ccccc3)c2c1 | 92.7 µM (inactive)
COc1cc2cc(C(=O)N3CC(CCl)c4c3cc(NC(=O)C(C)(C)c3ccccc3[N+](=O)[O-])c3ccccc43)[nH]c2c(OC)c1OC (stereo unspecified) | 8.87 µM (inactive)
N=c1oc2cc(O)ccc2cc1C(=O)Nc1ccccn1 | 73.6 µM (inactive)
COC1=CC(=O)c2c(c(-c3nc(C)cs3)cn2C)C1=O | 3.97 µM (inactive)
O=c1ccn(C2OC(CO)C(P(=O)(O)O)C2O)c(=O)[nH]1 (stereo unspecified) | > 100 µM (inactive)
Cc1cnc2nc(-c3ccc(F)cc3)cc(O)c2c1 | > 100 µM (inactive)
O=C(Nn1c(-c2ccccc2)nc2ccccc2c1=O)c1ccc(O)cc1 | > 100 µM (inactive)
CN1CCc2c(sc3nc(Nc4ccccc4)n(N)c(=O)c23)C1 | > 100 µM (inactive)
COc1cc(C2C3=C(COC3=O)OC(C)(C)Oc3cc4c(cc32)OCO4)cc(OC)c1OC (stereo unspecified) | 6.67 µM (inactive)
CC(=O)Oc1cc(Cl)c(C)c2c1[C@H]1CC[C@]3(C)[C@@H](OC(C)=O)CC[C@H]3[C@@H]1CC2 | > 100 µM (inactive)
O=[N+]([O-])c1ccc(Cl)c(/C=N/C23CC4CC(CC(C4)C2)C3)c1 | > 10 µM (inactive)
COc1ccc2nc3ccc(OC)cc3c(SCCCl)c2c1 | 51.4 µM (inactive)
Nc1nc(N)c2nc(CNc3ccc(C(=O)O)cc3)[nH]c2n1 | > 100 µM (inactive)
CC(C)(C)c1ccc(CN2CCN(C(c3ccccc3)c3ccc(Cl)cc3)CC2)cc1 (stereo unspecified) | > 100 µM (inactive)
CC(C)N(C(C)C)S(=O)(=O)CC12CCC(C/C1=N\O)C2 (stereo unspecified) | > 100 µM (inactive)
O=C(/C=C/c1ccccc1)CCC1C(=O)NC(=S)NC1=O | > 100 µM (inactive)
COc1ccc2c(c1)C(N)=C(c1ccccc1)C2=O | > 100 µM (inactive)
